{"source": "paper PMC8861115", "about": "“Characterization and structural analyses of a novel glycosyltransferase acting on the β-1,2-glucosidic linkages” (The Journal of Biological Chemistry, 2022)", "key": {"IaSGT (IALB_1185) [1]": {"target": "T1, IaSGT (IALB_1185) (Ignavibacterium album, UniProt I0AIT9)", "T1 construct": "full length (no N-terminal signal peptide), his6-tag fusion from pET30a(+) NdeI/XhoI, E. coli BL21(DE3); homodimer", "T1 sequence (I0AIT9 1-716)": "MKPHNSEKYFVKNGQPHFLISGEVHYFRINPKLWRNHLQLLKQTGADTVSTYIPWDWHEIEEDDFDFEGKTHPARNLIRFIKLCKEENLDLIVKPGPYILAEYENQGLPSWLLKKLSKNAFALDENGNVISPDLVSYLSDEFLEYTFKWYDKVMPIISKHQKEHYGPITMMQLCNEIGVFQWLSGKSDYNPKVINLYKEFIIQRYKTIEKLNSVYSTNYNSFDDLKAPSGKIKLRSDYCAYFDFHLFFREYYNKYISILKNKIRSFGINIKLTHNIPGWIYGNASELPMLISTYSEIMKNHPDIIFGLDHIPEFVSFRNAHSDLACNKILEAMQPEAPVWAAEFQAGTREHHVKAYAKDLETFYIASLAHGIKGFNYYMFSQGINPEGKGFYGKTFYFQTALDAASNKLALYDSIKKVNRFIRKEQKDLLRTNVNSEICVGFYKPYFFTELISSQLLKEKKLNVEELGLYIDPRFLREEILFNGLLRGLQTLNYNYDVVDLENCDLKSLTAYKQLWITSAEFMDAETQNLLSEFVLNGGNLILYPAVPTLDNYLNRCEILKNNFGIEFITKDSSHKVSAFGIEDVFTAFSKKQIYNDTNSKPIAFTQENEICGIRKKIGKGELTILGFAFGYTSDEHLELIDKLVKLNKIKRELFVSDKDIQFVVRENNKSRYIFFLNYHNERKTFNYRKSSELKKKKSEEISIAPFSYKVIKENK", "assay": "hexokinase/G6PDH thio-NAD+ coupled glucose release", "assay_type": "biochemical", "settings": "acceptor; donor Sop2 fixed 1 mM; pH 5.0, 37 °C", "from_the_text": "hexokinase/G6PDH thio-NAD+ coupled glucose release on IaSGT (IALB_1185)"}, "IaSGT (IALB_1185) [2]": {"target": "T2, IaSGT (IALB_1185) (Ignavibacterium album, UniProt I0AIT9, E343G)", "T2 construct": "full length (no N-terminal signal peptide), his6-tag fusion from pET30a(+) NdeI/XhoI, E. coli BL21(DE3); homodimer", "T2 sequence (I0AIT9 1-716 E343G)": "T1 sequence (I0AIT9 1-716) with E343G", "assay": "X-ray crystal structure of complex", "assay_type": "binding", "settings": "subsites -1 and +1, subunit A only"}}, "note": "Residue numbers refer to the chain shown, from its start.", "data": [{"smiles": "N#C[C@H](O[C@@H]1O[C@H](CO[C@@H]2O[C@H](CO)[C@@H](O)[C@H](O)[C@H]2O)[C@@H](O)[C@H](O)[C@H]1O)c1ccccc1", "note": "[Amygdalin]", "values": [{"measurement": "Km", "setting": "IaSGT (IALB_1185) [1]", "value": "150 ± 20", "unit": "µM"}]}, {"smiles": "OC[C@H]1NC[C@H](O)[C@@H](O)[C@@H]1O", "note": "[DNJ, 1-deoxynojirimycin]", "values": [{"measurement": "X-ray crystal structure of complex", "setting": "IaSGT (IALB_1185) [2]", "value": "The electron densities of DNJ molecules were observed only in subunit A in the E343G mutant"}]}]}
